Key:
Assay type in all cases: in vivo
[1] = test system: redroot pigweed (Amaranthus retroflexus, AMARE); experiment: Pre-emerge test, greenhouse herbicide activity screening; conditions: pre-emerge, 14 days after application
In short: (§1)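 Rating: 0–100 visual injury, 14 DAA. Application: acetone, 187 l/ha, 15–1000 g ai/ha, flat-fan track sprayer with nozzle 40–45 cm above soil or canopy. Post-emerge runs used 0.25% v/v surfactant on 2–3 leaf plants.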

[2] = test system: barnyardgrass (Echinochloa crus-galli, ECHCG); experiment: as above; conditions: pre-emerge, 14 days after application
From the text: (§2) A standard greenhouse herbicide activity screening system was used to evaluate the herbicidal efficacy and crop safety of these test compounds. Seven broadleaf weed species including redroot pigweed (Amaranthus retroflexus, AMARE, velvetleaf (Abutilon theophrasti, ABUTH), sicklepod (Cassia obtusifolia, CASOB), ivyleaf morningglory (Ipomoea hederacea, IPOHE), lambsquarters (Chenopodium album, CHEAL), common ragweed (Ambrosia artemisizfolia L., AMBEL), and cocklebur (Xanthium strumarium, XANST) were used as test species. Four grass weed species including green foxtail (Setaria viridis, SETVI), barnyardgrass (Echinochloa crus-galli, ECHCG), johnsongrass (Sorghum halepense, SORHA), and large crabgrass (Digitaria sanguinalis, DIGSA) were also used. In addition, three crop species, field corn (Zea mays L., var. Dekalb 535, CORN), soybean (Glycine max L., var. Pella 86, SOY), and is upland rice (Oryza sp., var. Tebonnet, RICE) were included.
(§3) All plants were grown in 10 cm square plastic pots which were filled with a sandy loam soil mix. For pre-emerge tests, seeds were planted one day prior to application of the test compounds. For post-emerge tests, seeds were planted 8-21 days prior to the test to allow emergence and good foliage development prior to application of the test substances. At the time of the post-emerge application, plants of all species were usually at the 2-3 leaf stage of development.
(§4) All test compounds Were dissolved in acetone and applied to the test units in a volume of 187 l /ha. Test materials were applied at rates ranging from 15 g ai/ha to 1000 g ai/ha using a track sprayer equipped with a TJ8001E even flow flat fan spray nozzle. Plants were arranged on a shelf so that the top of the canopy (post-emerge) or top of the soil surface (pre-emerge) was 40-45 cm below the nozzle. Pressurized air was used to force the test solution through the nozzle as it was mechanically advanced (via electrically driven chain drive) over the top of all test plants/pots. This application simulates a typical commercial field herbicide application.
(§5) In the post-emerge test, a commercial non-ionic surfactant was also included (0.25% v/v) to enhance wetting of the leaf surfaces of target plants. Immediately after application, test units of the pre-emerge applications were watered at the soil surface to incorporate the test materials. Subsequently, these test units were bottom-watered. Post-emerge test units were always bottom-watered.
(§6) At 14 days after application of the test materials, phytotoxicity ratings were recorded. A rating scale of 0-100 was used as previously described in Research Methods in Weed Science, 2nd edition, B. Truelove, Ed., Southern Weed Science Society, Auburn University, Auburn, Ala. 1977. Briefly, “0” corresponds to no damage and “100” corresponds to complete death of all plants in the test unit. This scale was used both to determine efficacy against weed species and damage to crop species. Herbicide activity data for various compounds of this invention, which are shown by compound No. in Tables 1-8, are shown in Tables 11 and 12.

[3] = test system: green foxtail (Setaria viridis, SETVI); experiment: as above; conditions: pre-emerge, 14 days after application
From the text: as §2, §3, §4, §5, §6

[4] = test system: ivyleaf morningglory (Ipomoea hederacea, IPOHE); experiment: as above; conditions: pre-emerge, 14 days after application
From the text: as §2, §3, §4, §5, §6

[5] = test system: lambsquarters (Chenopodium album, CHEAL); experiment: as above; conditions: pre-emerge, 14 days after application
From the text: as §2, §3, §4, §5, §6

[6] = test system: large crabgrass (Digitaria sanguinalis, DIGSA); experiment: as above; conditions: pre-emerge, 14 days after application
From the text: as §2, §3, §4, §5, §6

[7] = test system: sicklepod (Cassia obtusifolia, CASOB); experiment: as above; conditions: pre-emerge, 14 days after application
From the text: as §2, §3, §4, §5, §6

[8] = test system: velvetleaf (Abutilon theophrasti, ABUTH); experiment: as above; conditions: pre-emerge, 14 days after application
From the text: as §2, §3, §4, §5, §6

[9] = test system: field corn (Zea mays L., var. Dekalb 535, CORN); experiment: Pre-emerge test, crop safety; conditions: pre-emerge, 14 days after application; for phytotoxicity rating CORN: rating scale 0-100; for phytotoxicity rating CORN (crop damage): scale 0-100
In short: as §1

[10] = test system: upland rice (Oryza sp., var. Tebonnet, RICE); experiment: Pre-emerge test, crop safety; conditions: pre-emerge, 14 days after application; for phytotoxicity rating RICE: rating scale 0-100; for phytotoxicity rating RICE (crop damage): scale 0-100
In short: as §1

[11] = test system: barnyardgrass (Echinochloa crus-galli, ECHCG); experiment: Post-emerge test, greenhouse herbicide activity screening; conditions: post-emerge, 14 days after application, rating scale 0-100
From the text: as §2, §3, §4, §5, §6

[12] = test system: green foxtail (Setaria viridis, SETVI); experiment: as above; conditions: post-emerge, 14 days after application, rating scale 0-100
From the text: as §2, §3, §4, §5, §6

[13] = test system: ivyleaf morningglory (Ipomoea hederacea, IPOHE); experiment: as above; conditions: post-emerge, 14 days after application, rating scale 0-100
From the text: as §2, §3, §4, §5, §6

[14] = test system: lambsquarters (Chenopodium album, CHEAL); experiment: as above; conditions: post-emerge, 14 days after application, rating scale 0-100
From the text: as §2, §3, §4, §5, §6

[15] = test system: large crabgrass (Digitaria sanguinalis, DIGSA); experiment: as above; conditions: post-emerge, 14 days after application, rating scale 0-100
From the text: as §2, §3, §4, §5, §6

[16] = test system: redroot pigweed (Amaranthus retroflexus, AMARE); experiment: as above; conditions: post-emerge, 14 days after application
From the text: as §2, §3, §4, §5, §6

[17] = test system: sicklepod (Cassia obtusifolia, CASOB); experiment: as above; conditions: post-emerge, 14 days after application, rating scale 0-100
From the text: as §2, §3, §4, §5, §6

[18] = test system: velvetleaf (Abutilon theophrasti, ABUTH); experiment: as above; conditions: post-emerge, 14 days after application, rating scale 0-100
From the text: as §2, §3, §4, §5, §6

[19] = test system: field corn (Zea mays L., var. Dekalb 535, CORN); experiment: Post-emerge test, crop safety; conditions: post-emerge, 14 days after application, rating scale 0-100
In short: (§7)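 Visual ratings on a 0-100 scale (0 no damage, 100 all plants dead) were taken at 14 days after treatment. Rates of 15-1000 g ai/ha in acetone, 187 l/ha, were sprayed onto soil one day after planting (pre-emerge) or onto 2-3 leaf plants with 0.25% v/v surfactant (post-emerge).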

[20] = test system: upland rice (Oryza sp., var. Tebonnet, RICE); experiment: Post-emerge test, crop safety; conditions: post-emerge, 14 days after application, rating scale 0-100
In short: as §7

[21] = 250 g ai/ha, rating scale 0-100

## COc1c(Cl)cc(F)c(-n2c(=O)cc(C(F)(F)F)n(C)c2=O)c1NNC(=O)c1ccc2ccccc2c1 [15-5]
[1]; 63 g ai/ha, rating scale 0-100
  phytotoxicity rating AMARE: 100
[1]; [21]
  phytotoxicity rating AMARE: 100
[2]; 63 g ai/ha, rating scale 0-100
  phytotoxicity rating ECHCG: 70
[2]; [21]
  phytotoxicity rating ECHCG: 99
[3]; 63 g ai/ha, rating scale 0-100
  phytotoxicity rating SETVI: 100
[3]; [21]
  phytotoxicity rating SETVI: 100
[4]; 63 g ai/ha, rating scale 0-100
  phytotoxicity rating IPOHE: 100
[4]; [21]
  phytotoxicity rating IPOHE: 100
[5]; 63 g ai/ha, rating scale 0-100
  phytotoxicity rating CHEAL: 100
[5]; [21]
  phytotoxicity rating CHEAL: 100
[6]; 63 g ai/ha, rating scale 0-100
  phytotoxicity rating DIGSA: 100
[6]; [21]
  phytotoxicity rating DIGSA: 100
[7]; 63 g ai/ha, rating scale 0-100
  phytotoxicity rating CASOB: 100
[7]; [21]
  phytotoxicity rating CASOB: 100
[8]; 63 g ai/ha, rating scale 0-100
  phytotoxicity rating ABUTH: 100
[8]; [21]
  phytotoxicity rating ABUTH: 100
[9]; 63 g ai/ha
  phytotoxicity rating CORN: 80
[9]; 250 g ai/ha
  phytotoxicity rating CORN: 99
[10]; 63 g ai/ha
  phytotoxicity rating RICE: 70
[10]; 250 g ai/ha
  phytotoxicity rating RICE: 99
[11]; 63 g ai/ha
  Post-emerge Herbicidal Activity ECHCG (phytotoxicity rating): 40
[11]; 250 g ai/ha
  Post-emerge Herbicidal Activity ECHCG (phytotoxicity rating): 90
[12]; 63 g ai/ha
  Post-emerge Herbicidal Activity SETVI (phytotoxicity rating): 40
[12]; 250 g ai/ha
  Post-emerge Herbicidal Activity SETVI (phytotoxicity rating): 80
[13]; 63 g ai/ha
  Post-emerge Herbicidal Activity IPOHE (phytotoxicity rating): 90
[13]; 250 g ai/ha
  Post-emerge Herbicidal Activity IPOHE (phytotoxicity rating): 100
[14]; 63 g ai/ha
  Post-emerge Herbicidal Activity CHEAL (phytotoxicity rating): 100
[14]; 250 g ai/ha
  Post-emerge Herbicidal Activity CHEAL (phytotoxicity rating): 100
[15]; 63 g ai/ha
  Post-emerge Herbicidal Activity DIGSA (phytotoxicity rating): 30
[15]; 250 g ai/ha
  Post-emerge Herbicidal Activity DIGSA (phytotoxicity rating): 70
[16]; 63 g ai/ha, rating scale 0-100 (0 no damage, 100 complete death)
  Post-emerge Herbicidal Activity AMARE (phytotoxicity rating): 70
[16]; [21]
  Post-emerge Herbicidal Activity AMARE (phytotoxicity rating): 100
[17]; 63 g ai/ha
  Post-emerge Herbicidal Activity CASOB (phytotoxicity rating): 40
[17]; 250 g ai/ha
  Post-emerge Herbicidal Activity CASOB (phytotoxicity rating): 80
[18]; 63 g ai/ha
  Post-emerge Herbicidal Activity ABUTH (phytotoxicity rating): 100
[18]; 250 g ai/ha
  Post-emerge Herbicidal Activity ABUTH (phytotoxicity rating): 100
[19]; 63 g ai/ha
  Post-emerge Herbicidal Activity CORN (crop damage rating): 70
[19]; 250 g ai/ha
  Post-emerge Herbicidal Activity CORN (crop damage rating): 90
[20]; 63 g ai/ha
  Post-emerge Herbicidal Activity RICE (crop damage rating): 60
[20]; 250 g ai/ha
  Post-emerge Herbicidal Activity RICE (crop damage rating): 90

## COc1c(C#N)cc(F)c(-n2c(=O)cc(C(F)(F)F)n(C)c2=O)c1NC(=O)c1ccc2ccccc2c1 [2-180]
[1]; 63 g ai/ha, scale 0-100
  phytotoxicity rating AMARE: 100
[1]; 250 g ai/ha, scale 0-100
  phytotoxicity rating AMARE: 100
[2]; 63 g ai/ha, scale 0-100
  phytotoxicity rating ECHCG: 10
[2]; 250 g ai/ha, scale 0-100
  phytotoxicity rating ECHCG: 80
[3]; 63 g ai/ha, scale 0-100
  phytotoxicity rating SETVI: 30
[3]; 250 g ai/ha, scale 0-100
  phytotoxicity rating SETVI: 90
[4]; 63 g ai/ha, scale 0-100
  phytotoxicity rating IPOHE: 60
[4]; 250 g ai/ha, scale 0-100
  phytotoxicity rating IPOHE: 100
[5]; 63 g ai/ha, scale 0-100
  phytotoxicity rating CHEAL: 100
[5]; 250 g ai/ha, scale 0-100
  phytotoxicity rating CHEAL: 100
[6]; 63 g ai/ha, scale 0-100
  phytotoxicity rating DIGSA: 20
[6]; 250 g ai/ha, scale 0-100
  phytotoxicity rating DIGSA: 90
[7]; 63 g ai/ha, scale 0-100
  phytotoxicity rating CASOB: 40
[7]; 250 g ai/ha, scale 0-100
  phytotoxicity rating CASOB: 50
[8]; 63 g ai/ha, scale 0-100
  phytotoxicity rating ABUTH: 100
[8]; 250 g ai/ha, scale 0-100
  phytotoxicity rating ABUTH: 100
[9]; 63 g ai/ha
  phytotoxicity rating CORN (crop damage): 0
[9]; 250 g ai/ha
  phytotoxicity rating CORN (crop damage): 5
[10]; 63 g ai/ha
  phytotoxicity rating RICE (crop damage): 40
[10]; 250 g ai/ha
  phytotoxicity rating RICE (crop damage): 70
[11]; 63 g ai/ha
  ECHCG phytotoxicity rating: 40
[11]; 250 g ai/ha
  ECHCG phytotoxicity rating: 60
[12]; 63 g ai/ha
  SETVI phytotoxicity rating: 60
[12]; 250 g ai/ha
  SETVI phytotoxicity rating: 70
[13]; 63 g ai/ha
  IPOHE phytotoxicity rating: 100
[13]; 250 g ai/ha
  IPOHE phytotoxicity rating: 100
[14]; 63 g ai/ha
  CHEAL phytotoxicity rating: 100
[14]; 250 g ai/ha
  CHEAL phytotoxicity rating: 100
[15]; 63 g ai/ha
  DIGSA phytotoxicity rating: 40
[15]; 250 g ai/ha
  DIGSA phytotoxicity rating: 40
[16]; 63 g ai/ha, rating scale 0-100
  AMARE phytotoxicity rating: 100
[16]; [21]
  AMARE phytotoxicity rating: 100
[17]; 63 g ai/ha
  CASOB phytotoxicity rating: 100
[17]; 250 g ai/ha
  CASOB phytotoxicity rating: 100
[18]; 63 g ai/ha
  ABUTH phytotoxicity rating: 100
[18]; 250 g ai/ha
  ABUTH phytotoxicity rating: 100
[19]; 63 g ai/ha
  CORN phytotoxicity rating (crop damage): 5
[19]; 250 g ai/ha
  CORN phytotoxicity rating (crop damage): 20
[20]; 63 g ai/ha
  RICE phytotoxicity rating (crop damage): 20
[20]; 250 g ai/ha
  RICE phytotoxicity rating (crop damage): 65
